Results as given in the kinase profiling compilation of Christmann-Franck et al. (2016).

What was measured:
Test in all cases: KINOMEscan competition binding
Conditions in all cases: compound 10.0 µM
[1] = molecular target: CAMK1D (human) (UniProt Q8IU85)
[2] = molecular target: CAMK2G (human) (UniProt Q13555)
[3] = molecular target: CDC42BPA (human) (UniProt Q5VT25)
[4] = molecular target: CDK16 (human) (UniProt Q00536)
[5] = molecular target: CDK2 (human) (UniProt P24941)
[6] = molecular target: CSK (human) (UniProt P41240)
[7] = molecular target: CSNK1A1 (human) (UniProt P48729)
[8] = molecular target: CSNK2A1 (human) (UniProt P68400)
[9] = molecular target: DAPK1 (human) (UniProt P53355)
[10] = molecular target: EIF2AK2 (human) (UniProt P19525)
[11] = molecular target: EPHA8 (human) (UniProt P29322)
[12] = molecular target: FES (human) (UniProt P07332)
[13] = molecular target: GRK1 (human) (UniProt Q15835)
[14] = molecular target: JAK1 JH1 catalytic (human) (UniProt P23458)
[15] = molecular target: JAK1 JH2 pseudokinase (human) (UniProt P23458)
[16] = molecular target: LATS2 (human) (UniProt Q9NRM7)
[17] = molecular target: LRRK2 (human) (UniProt Q5S007)
[18] = molecular target: MAK (human) (UniProt P20794)
[19] = molecular target: MAP2K2 (human) (UniProt P36507)
[20] = molecular target: MAP3K11 (human) (UniProt Q16584)
[21] = molecular target: MAP3K13 (human) (UniProt O43283)
[22] = molecular target: MAP4K2 (human) (UniProt Q12851)
[23] = tested on: MET (human), P08581 [M1250T]
[24] = molecular target: MYO3A (human) (UniProt Q8NEV4)
[25] = molecular target: NEK6 (human) (UniProt Q9HC98)
[26] = molecular target: PKN3 (M.tuberculosis) (UniProt Q6P5Z2)
[27] = molecular target: PRKCI (human) (UniProt P41743)
[28] = molecular target: PRKCQ (human) (UniProt Q04759)
[29] = molecular target: RPS6KA5 KD2 (human) (UniProt O75582)
[30] = molecular target: SGK110 (human) (UniProt P0C264)
[31] = molecular target: SRPK2 (human) (UniProt P78362)
[32] = molecular target: STK17A (human) (UniProt Q9UEE5)
[33] = molecular target: TSSK1B (human) (UniProt Q9BXA7)
[34] = molecular target: TYK2 JH1 catalytic (human) (UniProt P29597)
[35] = molecular target: VRK2 (human) (UniProt Q86Y07)

Sequence of TYK2 JH1 catalytic (human) (P29597 whole entry, looked up): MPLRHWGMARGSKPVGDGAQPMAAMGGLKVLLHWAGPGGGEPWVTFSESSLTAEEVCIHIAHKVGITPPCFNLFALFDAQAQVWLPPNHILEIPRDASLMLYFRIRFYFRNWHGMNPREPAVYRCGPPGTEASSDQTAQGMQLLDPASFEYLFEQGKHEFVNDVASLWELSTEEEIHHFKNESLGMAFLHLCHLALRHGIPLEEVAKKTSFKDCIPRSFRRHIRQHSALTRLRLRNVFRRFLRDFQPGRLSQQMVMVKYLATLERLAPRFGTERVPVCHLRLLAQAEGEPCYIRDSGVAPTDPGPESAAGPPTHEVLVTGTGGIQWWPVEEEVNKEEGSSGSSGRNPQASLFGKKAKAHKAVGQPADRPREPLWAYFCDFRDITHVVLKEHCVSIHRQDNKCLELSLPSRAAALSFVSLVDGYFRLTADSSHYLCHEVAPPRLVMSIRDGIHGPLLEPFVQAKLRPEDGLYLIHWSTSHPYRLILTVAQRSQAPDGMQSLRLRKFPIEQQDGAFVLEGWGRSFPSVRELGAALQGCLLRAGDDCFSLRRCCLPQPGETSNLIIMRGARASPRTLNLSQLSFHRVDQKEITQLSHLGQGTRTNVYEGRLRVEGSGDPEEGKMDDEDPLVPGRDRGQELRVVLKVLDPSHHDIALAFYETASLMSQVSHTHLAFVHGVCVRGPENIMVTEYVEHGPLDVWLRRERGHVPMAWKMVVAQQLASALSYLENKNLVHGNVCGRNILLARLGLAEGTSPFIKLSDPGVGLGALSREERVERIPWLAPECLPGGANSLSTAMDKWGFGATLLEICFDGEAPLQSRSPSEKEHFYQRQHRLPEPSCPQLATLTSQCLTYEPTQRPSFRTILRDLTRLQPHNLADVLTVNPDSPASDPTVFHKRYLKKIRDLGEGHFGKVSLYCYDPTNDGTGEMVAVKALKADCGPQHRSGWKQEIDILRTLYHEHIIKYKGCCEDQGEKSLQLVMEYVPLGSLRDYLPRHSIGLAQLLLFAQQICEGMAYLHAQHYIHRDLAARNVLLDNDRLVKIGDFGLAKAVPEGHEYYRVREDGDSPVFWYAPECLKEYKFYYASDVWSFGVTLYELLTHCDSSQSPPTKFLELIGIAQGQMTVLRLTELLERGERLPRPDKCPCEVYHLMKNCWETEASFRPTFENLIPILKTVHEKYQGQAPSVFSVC
Sequence of MYO3A (human) (Q8NEV4 whole entry, looked up): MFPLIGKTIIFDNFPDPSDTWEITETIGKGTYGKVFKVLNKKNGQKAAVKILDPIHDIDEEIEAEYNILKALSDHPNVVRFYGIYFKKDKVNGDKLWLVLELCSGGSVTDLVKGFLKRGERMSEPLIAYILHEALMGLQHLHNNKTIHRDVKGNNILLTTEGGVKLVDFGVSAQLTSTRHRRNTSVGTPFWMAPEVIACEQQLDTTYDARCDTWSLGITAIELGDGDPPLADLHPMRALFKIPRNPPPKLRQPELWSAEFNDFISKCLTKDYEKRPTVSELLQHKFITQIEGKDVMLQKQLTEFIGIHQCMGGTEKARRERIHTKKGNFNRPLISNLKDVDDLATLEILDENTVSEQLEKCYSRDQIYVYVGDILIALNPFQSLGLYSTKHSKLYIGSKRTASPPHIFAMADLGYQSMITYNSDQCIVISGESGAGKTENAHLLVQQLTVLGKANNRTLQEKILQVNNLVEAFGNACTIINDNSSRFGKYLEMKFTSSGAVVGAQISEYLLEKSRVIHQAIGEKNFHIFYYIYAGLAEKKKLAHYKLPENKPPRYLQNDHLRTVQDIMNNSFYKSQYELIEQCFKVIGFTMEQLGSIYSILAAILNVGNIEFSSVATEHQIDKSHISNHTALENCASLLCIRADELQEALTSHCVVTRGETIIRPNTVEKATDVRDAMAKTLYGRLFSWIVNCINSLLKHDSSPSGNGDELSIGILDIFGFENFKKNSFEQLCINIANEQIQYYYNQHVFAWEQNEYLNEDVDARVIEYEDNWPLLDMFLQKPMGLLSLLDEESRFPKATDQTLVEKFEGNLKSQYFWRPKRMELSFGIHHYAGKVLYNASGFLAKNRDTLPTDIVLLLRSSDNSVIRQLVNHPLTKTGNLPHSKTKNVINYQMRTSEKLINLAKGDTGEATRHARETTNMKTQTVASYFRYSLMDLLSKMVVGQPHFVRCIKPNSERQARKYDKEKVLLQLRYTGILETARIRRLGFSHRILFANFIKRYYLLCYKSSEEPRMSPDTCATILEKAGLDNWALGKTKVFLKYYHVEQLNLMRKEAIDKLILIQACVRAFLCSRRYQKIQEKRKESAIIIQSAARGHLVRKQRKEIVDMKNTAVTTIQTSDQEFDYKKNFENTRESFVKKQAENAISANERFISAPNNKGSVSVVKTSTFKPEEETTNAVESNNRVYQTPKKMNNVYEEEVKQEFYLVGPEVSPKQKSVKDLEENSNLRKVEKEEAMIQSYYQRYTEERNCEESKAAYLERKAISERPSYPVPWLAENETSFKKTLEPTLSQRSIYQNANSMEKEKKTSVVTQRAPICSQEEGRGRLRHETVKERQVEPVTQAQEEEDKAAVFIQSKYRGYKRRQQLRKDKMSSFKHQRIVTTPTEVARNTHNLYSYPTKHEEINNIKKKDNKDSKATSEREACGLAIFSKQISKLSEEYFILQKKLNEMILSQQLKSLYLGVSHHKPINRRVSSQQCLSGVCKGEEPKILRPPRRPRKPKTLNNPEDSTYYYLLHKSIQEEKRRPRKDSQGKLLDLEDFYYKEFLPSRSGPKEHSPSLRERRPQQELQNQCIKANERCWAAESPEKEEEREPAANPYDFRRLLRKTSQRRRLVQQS
Sequence of EIF2AK2 (human) (P19525 whole entry, looked up): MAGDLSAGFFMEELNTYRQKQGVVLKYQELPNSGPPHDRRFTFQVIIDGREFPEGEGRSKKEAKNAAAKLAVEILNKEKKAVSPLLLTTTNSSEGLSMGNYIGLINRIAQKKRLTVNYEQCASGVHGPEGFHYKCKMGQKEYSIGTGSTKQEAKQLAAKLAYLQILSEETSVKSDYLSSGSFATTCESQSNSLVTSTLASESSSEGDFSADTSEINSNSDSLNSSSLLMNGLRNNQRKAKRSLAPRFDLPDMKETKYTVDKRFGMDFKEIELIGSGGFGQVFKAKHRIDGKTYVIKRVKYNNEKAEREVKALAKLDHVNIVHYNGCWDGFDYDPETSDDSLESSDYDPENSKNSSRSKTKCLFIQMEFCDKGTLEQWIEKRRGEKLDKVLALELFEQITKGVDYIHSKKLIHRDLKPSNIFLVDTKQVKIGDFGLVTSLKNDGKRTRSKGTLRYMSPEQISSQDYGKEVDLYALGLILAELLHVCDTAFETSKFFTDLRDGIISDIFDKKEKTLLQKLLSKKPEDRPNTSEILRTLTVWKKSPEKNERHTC
Sequence of EPHA8 (human) (P29322 whole entry, looked up): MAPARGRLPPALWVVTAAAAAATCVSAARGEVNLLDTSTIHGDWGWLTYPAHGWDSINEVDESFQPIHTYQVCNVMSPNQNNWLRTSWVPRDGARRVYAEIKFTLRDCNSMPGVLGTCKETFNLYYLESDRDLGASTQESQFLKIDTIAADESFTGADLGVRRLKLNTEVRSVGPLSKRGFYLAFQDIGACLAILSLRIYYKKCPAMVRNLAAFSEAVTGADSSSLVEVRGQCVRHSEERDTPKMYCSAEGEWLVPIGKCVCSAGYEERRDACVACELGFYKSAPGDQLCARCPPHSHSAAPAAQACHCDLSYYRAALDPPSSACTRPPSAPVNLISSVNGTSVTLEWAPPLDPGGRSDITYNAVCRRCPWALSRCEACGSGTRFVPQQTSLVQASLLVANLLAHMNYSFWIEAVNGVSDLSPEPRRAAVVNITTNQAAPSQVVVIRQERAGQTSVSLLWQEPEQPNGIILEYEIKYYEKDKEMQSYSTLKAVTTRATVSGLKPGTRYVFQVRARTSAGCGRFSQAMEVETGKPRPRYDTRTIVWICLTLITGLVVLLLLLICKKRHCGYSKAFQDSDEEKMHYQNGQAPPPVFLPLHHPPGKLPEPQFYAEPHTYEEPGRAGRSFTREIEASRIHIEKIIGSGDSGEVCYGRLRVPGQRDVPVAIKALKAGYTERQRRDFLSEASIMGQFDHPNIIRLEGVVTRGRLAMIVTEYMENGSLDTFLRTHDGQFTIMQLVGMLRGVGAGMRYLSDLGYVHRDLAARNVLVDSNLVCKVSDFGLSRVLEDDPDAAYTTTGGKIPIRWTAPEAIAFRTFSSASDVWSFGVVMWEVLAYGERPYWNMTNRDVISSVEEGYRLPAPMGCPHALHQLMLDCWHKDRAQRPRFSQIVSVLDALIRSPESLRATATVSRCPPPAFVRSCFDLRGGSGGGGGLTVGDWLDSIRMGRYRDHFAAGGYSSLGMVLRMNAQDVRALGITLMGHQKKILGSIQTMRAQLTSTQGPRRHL
Sequence of PRKCI (human) (P41743 whole entry, looked up): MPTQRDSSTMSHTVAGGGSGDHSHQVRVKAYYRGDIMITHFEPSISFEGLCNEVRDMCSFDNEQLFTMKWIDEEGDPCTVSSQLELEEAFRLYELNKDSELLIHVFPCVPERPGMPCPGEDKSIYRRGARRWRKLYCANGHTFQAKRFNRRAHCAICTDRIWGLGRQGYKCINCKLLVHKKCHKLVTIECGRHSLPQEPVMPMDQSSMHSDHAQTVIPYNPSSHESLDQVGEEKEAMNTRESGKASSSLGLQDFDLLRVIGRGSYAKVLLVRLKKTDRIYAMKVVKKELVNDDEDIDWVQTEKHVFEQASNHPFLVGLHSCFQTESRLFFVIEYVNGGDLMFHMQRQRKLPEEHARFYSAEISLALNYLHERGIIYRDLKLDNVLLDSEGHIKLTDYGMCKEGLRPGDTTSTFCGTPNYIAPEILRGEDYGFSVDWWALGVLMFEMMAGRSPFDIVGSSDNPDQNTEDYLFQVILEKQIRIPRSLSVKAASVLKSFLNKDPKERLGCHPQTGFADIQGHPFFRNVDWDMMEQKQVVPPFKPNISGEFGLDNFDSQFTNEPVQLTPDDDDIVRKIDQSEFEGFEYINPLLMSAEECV

| Compound | kinase still bound, per cent of control [1] | kinase still bound, per cent of control [2] | kinase still bound, per cent of control [3] | kinase still bound, per cent of control [4] | kinase still bound, per cent of control [5] | kinase still bound, per cent of control [6] | kinase still bound, per cent of control [8] | kinase still bound, per cent of control [10] | kinase still bound, per cent of control [11] | kinase still bound, per cent of control [12] | kinase still bound, per cent of control [13] | kinase still bound, per cent of control [16] | kinase still bound, per cent of control [17] | kinase still bound, per cent of control [18] | kinase still bound, per cent of control [19] | kinase still bound, per cent of control [21] | kinase still bound, per cent of control [22] | kinase still bound, per cent of control [23] | kinase still bound, per cent of control [24] | kinase still bound, per cent of control [25] | other results |
| --- | --- | --- | --- | --- | --- | --- | --- | --- | --- | --- | --- | --- | --- | --- | --- | --- | --- | --- | --- | --- | --- |
| C=CC(=O)Nc1ccc(C(=O)c2sc(Nc3ccc(N4CCN(C)CC4)cc3OC)nc2N)cc1 | 0.55% | 1.6% | 100% | 67% | 75% | 87% | 14% | 100% | 88% | 52% | 100% | 100% | 5.2% | 100% | 89% | 100% | 4.6% | 91% | 35% | 73% | kinase still bound, per cent of control [7]: 73%; kinase still bound, per cent of control [9]: 9.4%; kinase still bound, per cent of control [14]: 100%; kinase still bound, per cent of control [15]: 65%; kinase still bound, per cent of control [20]: 100%; kinase still bound, per cent of control [26]: 100%; kinase still bound, per cent of control [27]: 26%; kinase still bound, per cent of control [28]: 93%; kinase still bound, per cent of control [29]: 7%; kinase still bound, per cent of control [30]: 100%; kinase still bound, per cent of control [31]: 95%; kinase still bound, per cent of control [32]: 100%; kinase still bound, per cent of control [33]: 44%; kinase still bound, per cent of control [34]: 100%; kinase still bound, per cent of control [35]: 96% |
| CC1=C(C(=O)Nc2cc3cn[nH]c3cc2F)C(c2ccc(C(F)(F)F)cc2)CC(=O)N1 (configuration not stated) | 97% | 97% | 79% | 100% | 79% | 100% | 81% | 76% | 71% | 95% | 78% | 10% | 100% | 100% | 64% | 83% | 96% | 23% | 85% | 70% | kinase still bound, per cent of control [7]: 86%; kinase still bound, per cent of control [9]: 81%; kinase still bound, per cent of control [14]: 28%; kinase still bound, per cent of control [15]: 100%; kinase still bound, per cent of control [20]: 100%; kinase still bound, per cent of control [26]: 92%; kinase still bound, per cent of control [27]: 72%; kinase still bound, per cent of control [28]: 54%; kinase still bound, per cent of control [29]: 87%; kinase still bound, per cent of control [30]: 59%; kinase still bound, per cent of control [31]: 100%; kinase still bound, per cent of control [32]: 95%; kinase still bound, per cent of control [33]: 98%; kinase still bound, per cent of control [34]: 20%; kinase still bound, per cent of control [35]: 87% |
| CC(=O)c1c(C)c2cnc(Nc3ccc(N4CCNCC4)cn3)nc2n(C2CCCC2)c1=O | 7.3% | 11% | 98% | 0.2% | 20% | 90% | 0.05% | 30% | 93% | 80% | 89% | 42% | 50% | 76% | 9.1% | 82% | 52% | 41% | 58% | 69% | kinase still bound, per cent of control [26]: 1%; kinase still bound, per cent of control [27]: 57%; kinase still bound, per cent of control [28]: 68%; kinase still bound, per cent of control [29]: 15%; kinase still bound, per cent of control [31]: 68%; kinase still bound, per cent of control [33]: 8%; kinase still bound, per cent of control [34]: 18% |
